Experimental data: the NIST ThermoML archive (doi:10.1016/j.jct.2006.02.008)
Numbers after ± are expanded uncertainties.

Key:
[1] = refractive index (Na D-line) (dimensionless); settings: 293.2 K; 101.33 kPa; Liquid; Standard Abbe refractometry

Row | SMILES | mass density (293.2 K, 101.33 kPa, Liquid, Pycnometric method) | refractive index [1] | Normal melting temperature (Crystal, visual observation)
1 | CCOC(=O)c1ccccc1C(=O)OCC [diethyl phthalate] | 1118.2 ± 1 kg/m3 | 1.5016 ± 0.0007 | –
2 | O=C1C=CC(=O)O1 [maleic anhydride] | – | – | 52.7 ± 0.5 °C
